In brackets after ≈: the same amount, converted by molar mass. Like-named read-outs stand apart in the source and are kept apart here.
Key:
[1] = system: souches de S. aureus issues de prélèvements de plaies du pied infectées chez des patients diabétiques; assay: Antibiotic susceptibility test (MIC, 96-well microplate, OD 600 nm) in Mueller-Hinton medium (MH); assay type: cell-based; parameters: key to Classification (S) ou (R) en MH: S (sensible); R (résistante); conditions: for MIC: Staphylococcus aureus, read-out: CMI en milieu MH
Source text: • La Figure 1 représente des courbes de croissance de bactéries en fonction du milieu de culture. Sur cette figure, les ordonnées correspondent au logarithme d'unités formant colonie par millilitre de milieu de culture (Log UFC/ml) et les abscisses, au temps en heure (H). La Figure 1A représente les courbes correspondant à la croissance de 2 souches de S. aureus, Newman (gauche) et SAC1 (droite), dans le milieu BHI (courbe avec indicateurs ronds) et un exemple de milieu selon l'invention (MP) (courbe avec indicateurs carrés). La Figure 1B représente les courbes correspondant à la croissance de 2 souches de P. aeruginosa, PAO1 (gauche) et PAC1 (droite), dans le milieu BHI (courbe avec indicateurs ronds) et un exemple de milieu selon l'invention (MP) (courbe avec indicateurs carrés). La Figure 1C représente les courbes correspondant à la croissance de 2 souches cliniques S. aureus SAC1 et P. aeruginosa PAC1, en coculture dans le milieu BHI (P. aeruginosa BHI ou S. aureus BHI) et un exemple de milieu selon l'invention (MP) (P. aeruginosa MP ou S. aureus MP). La mesure de différence significative, réalisée par le test de Student, entre les valeurs d'UFC/mL est exprimée, soit par (***) qui correspond à une p-value <0,001, soit par (**) qui correspond à une p-value <0,01. • La Figure 2 représente les résultats obtenus d'une détermination de l'adhésion et de la formation de biofilm par dénombrement à 24h. Sur cette figure, les ordonnées correspondent au logarithme d'unités formant colonie par millilitre de milieu de culture (Log UFC/ml). La Figure 2A représente un histogramme ou diagramme en bâton du nombre de bactéries dénombrées suite à des cultures séparées de souche S. aureus Newman (Newman), S. aureus SAC1 (SAC 1), P. aeruginosa PAO1 (PAO1) ou P. aeruginosa PAC1 (PAC1), pendant 24H dans un milieu BHI (BHI) (bâtons noirs) ou dans un exemple de milieu selon l'invention (MP) (bâtons gris). La Figure 2B montre sous forme d'histogramme le nombre de bactéries dénombrées suite à des co-cultures des souches de référence S. aureus Newman et P. aeruginosa PAO1 (PAO1/Newman), ainsi que du couple de souches cliniques S. aureus SAC1 et P. aeruginosa PAC1 (PAC 1/SAC1), pendant 24H dans un milieu BHI (BHI) (bâtons noirs) ou dans un exemple de milieu selon l'invention (MP) (bâtons gris). La mesure de différence significative, réalisée par le test de Student, entre les valeurs d'UFC est exprimée, soit par (***) qui correspond à une p-value <0,001, soit par (**) qui correspond à une p-value <0,01. • La Figure 3 représente les résultats obtenus d'une détermination de sensibilité à des antibiotiques de souches cliniques de S. aureus issues d'infections de plaies du pied chez le diabétique. Les données cliniques, anonymisées, nécessaires à l'interprétation des résultats, consistaient en l'antibiothérapie donnée au patient, ainsi que la qualification par les médecins hospitaliers d'un succès ou échec thérapeutique. La définition de succès ou échec thérapeutique est définie comme suit. Le patient commence et suit l'antibiothérapie prescrite et un deuxième prélèvement microbiologique est effectué lors du dernier jour de traitement de la 1ère antibiothérapie (± 2 jours). Ce prélèvement est utilisé pour déterminer la présence/absence du pathogène ciblé par l'antibiothérapie, S. aureus. Si ce prélèvement a montré la persistance d'un S. aureus, l'antibiothérapie est en échec. A l'inverse, en cas d'absence de S. aureus, l'antibiothérapie est associée à un succès thérapeutique. Les antibiogrammes ont été réalisés classiquement sur une durée de 18h ± 2h en accord avec les recommandations de l'EUCAST. Une gamme de l'antibiotique à tester a été réalisée. • La Figure 3A montre sous forme d'histogramme les résultats des CMI déduites d'antibiogrammes sur 11 souches testées en présence d'amoxicilline / clavulanate de potassium (commercialisé par exemple sous le nom d'Augmentin (marque déposée)).

souche de S. aureus = conditions: modèle de sepsis, souris infectée par S. aureus, traitées; cited from earlier work

Compound: CCC[C@@H]1C[C@@H](C(=O)N[C@@H]([C@H]2O[C@H](SC)[C@H](O)[C@@H](O)[C@H]2O)[C@H](C)Cl)N(C)C1 [clindamycine]
- MIC ([1]; souche C01P009): 0.25 µg/mL (≈ 0.588 µM)
- MIC ([1]; souche C01P010): 0.25 µg/mL (≈ 0.588 µM)
- MIC ([1]; souche C03P003): 0.25 µg/mL (≈ 0.588 µM)
- MIC ([1]; souche C03P004): 0.25 µg/mL (≈ 0.588 µM)
- MIC ([1]; souche C03P005): 0.25 µg/mL (≈ 0.588 µM)
- MIC ([1]; souche C03P009): 0.5 µg/mL (≈ 1.18 µM)
- Classification (S) ou (R) en MH ([1]; souche C01P009): (S)
- Classification (S) ou (R) en MH ([1]; souche C01P010): (S)
- Classification (S) ou (R) en MH ([1]; souche C03P003): (S)
- Classification (S) ou (R) en MH ([1]; souche C03P004): (S)
- Classification (S) ou (R) en MH ([1]; souche C03P005): (S)
- Classification (S) ou (R) en MH ([1]; souche C03P009): (S)

Compound: amoxicilline / clavulanate de potassium [amoxicilline/clavulanate de potassium]
- CMI en milieu MH ([1]; souche C01P012): 0,25 mg/L / µg/L
- Classification (S) ou (R) en MH ([1]; souche C01P012): (S)
- CMI en milieu MH ([1]; souche C03P001): 0,25 mg/L / µg/L
- Classification (S) ou (R) en MH ([1]; souche C03P001): (S)
- CMI en milieu MH ([1]; souche C03P008): 0,5 mg/L / µg/L
- Classification (S) ou (R) en MH ([1]; souche C03P008): (S)
- CMI en milieu MH ([1]; souche C04P003): 0,25 mg/L / µg/L
- Classification (S) ou (R) en MH ([1]; souche C04P003): (S)
- CMI en milieu MH ([1]; souche C04P005f): 0,5 mg/L / µg/L
- Classification (S) ou (R) en MH ([1]; souche C04P005f): (S)
- CMI en milieu MH ([1]; souche C04P005i): 0,5 mg/L / µg/L
- Classification (S) ou (R) en MH ([1]; souche C04P005i): (S)
- CMI en milieu MH ([1]; souche C04P007): 0,25 mg/L / µg/L
- Classification (S) ou (R) en MH ([1]; souche C04P007): (S)
- CMI en milieu MH ([1]; souche C06P001f): 0,25 mg/L / µg/L
- Classification (S) ou (R) en MH ([1]; souche C06P001f): (S)
- CMI en milieu MH ([1]; souche C06P001 i): 0,25 mg/L / µg/L
- Classification (S) ou (R) en MH ([1]; souche C06P001 i): (S)
- CMI en milieu MH ([1]; souche C06P003f): 0,25 mg/L / µg/L
- Classification (S) ou (R) en MH ([1]; souche C06P003f): (S)
- CMI en milieu MH ([1]; souche C06P003i): 0,25 mg/L / µg/L
- Classification (S) ou (R) en MH ([1]; souche C06P003i): (S)

Compound: cotrimoxazole
- survie des souris (souche de S. aureus): n'a pas permis la survie des souris
- CMI en milieu MH ([1]; souche C01P0 01): 0,5 mg/L
- Classification (S) ou (R) en MH ([1]; souche C01P0 01): (S)
- CMI en milieu MH ([1]; souche C01P0 11): 4 mg/L
- Classification (S) ou (R) en MH ([1]; souche C01P0 11): (S)
- CMI en milieu MH ([1]; souche C03P0 02): 1 mg/L
- Classification (S) ou (R) en MH ([1]; souche C03P0 02): (S)
- CMI en milieu MH ([1]; souche C03P0 07): 1 mg/L
- Classification (S) ou (R) en MH ([1]; souche C03P0 07): (S)
- CMI dans le milieu MH ([1]; souche associée à un succès thérapeutique): 4 mg/L

From patent publication EP4060021A1, “MIMETIC MICROBIOLOGICAL CULTURE MEDIUM AND USES THEREOF” (BIOFILM PHARMA, priority 2021, dated 2022)
